Test results published in patent US20080220450A1, “Population Based Prediction Methods for Immune Response Determinations and Methods for Verifying Immunological Response Data” (Danisco US, Inc., Genencor Division, priority 2004, published 2008).

Experiments:
[1] = system: CD4+ T-cells and dendritic cells; assay: I-MUNE assay: CD4+ T-cell proliferation to 15-mer peptide sets presented by dendritic cells; assay type: cell-based, human; design: Structure Value: scale not given here; quantitative response among responders: unit not given here; conditions: for Average percent response to epitope peptide: Table 6, repeat tests of the epitope peptide on discrete donor groups; for Response/Peptide: SI>2.95; for effect of substitution on percent of responders to the epitope: peptide #49 variants, 69 donors; for statistical significance of the peptide response: conservative and non-conservative Poisson methods; for response to the peptide: beta-lactamase peptide set, 3× above the background
Experimental: All peptides were obtained from a commercial source (Mimotopes, San Diego, C-A). For the I-MUNE® assay system described herein, 15-mer peptides offset by 3 amino acids that described the entire sequence of the proteins of interest were synthesized in a multipin format (See, Maeji et al., J. Immunol. Meth., 134:23-33 [1990]). Peptides were resuspended in DMSO at approximately 1 to 2 mg/ml, and stored at −70° C. prior to use. Each peptide was tested at least in duplicate, although for small peptide sets (e.g., Ber e 1), the peptides were routinely tested in triplicate.
Volunteer donor human blood buffy coat samples were obtained from two commercial sources (Stanford Blood Center, Palo Alto, Calif., and the Sacramento Medical Foundation, Sacramento, Calif.). Buffy coat samples were further purified by density separation. Each sample was HLA typed for HLA-DR and HLA-DQ using a commercial PCR-based kit (Bio-Synthesis).
Monocytes were purified by adherence to plastic in AIM V medium (Gibco/Life Technologies). Adherent cells were cultured in AIM V media containing 500 units/ml of recombinant human IL-4 (Endogen) and 800 units/ml recombinant human GM-CSF (Endogen) for 5 days. On day 5, recombinant human IL-1α (Endogen) and recombinant human TNF-α (Endogen) were added to 50 units/ml and 0.2 units/ml, respectively. On day 7, the fully matured dendritic cells were treated with 50 μg/ml mitomycin C (Sigma) for 1 hour at 37° C. Treated dendritic cells were dislodged with 50 mM EDTA in PBS, washed in AIM V medium, counted, and resuspended in AIM V media at 2×10^5 cells/ml.
CD4^+ T-cells were purified by negative selection from frozen aliquots of human peripheral blood mononuclear cells (PBMC) using Cellect CD4 columns (Cedarlane). […] CD4^+ T-cells were resuspended in AIM V media at 2×10^6 cells per ml.
CD4^+ T-cells and dendritic cells were plated in round-bottomed 96 well format plates at 100 μl of each cell mix per well. Peptide was added to a final concentration of approximately 5 ug/ml in 0.25-0.5% DMSO. Control wells contained 0.5% DMSO without added peptide. Each peptide was tested in duplicate. Cultures were incubated at 37° C., in 5% CO2 for 5 days. On day 5, 0.5 uCi of tritiated thymidine (NEN DuPont) was added to each well. On day 6, the cultures were harvested onto glass fiber mats using a TomTec manual harvester (TomTec), then processed for scintillation counting. Proliferation was assessed by determining the average counts per minute (CPM) value for each set of duplicate wells (TriLux Beta). This method is also described in U.S. Pat. No. 6,218,165 and Stickler et al., J. Immunother. 23: 654-660 (2000), both of which are herein incorporated by reference.
For each individual buffy coat sample, the average CPM values obtained in the I-MUNE® assay for all of the peptides were analyzed. The average CPM values for each peptide were divided by the average CPM value for the control (DMSO only) wells to determine the “stimulation index” (SI). Donors were tested with each peptide set until an average of at least two responses per peptide were compiled. The data for each protein was graphed showing the percent responders to each peptide within the set. A positive response was collated if the SI value was equal to or greater than 2.95. This value was chosen as it approximates a difference of three standard deviations in a normal population distribution. For each protein assessed, positive responses to individual peptides by individual donors were compiled. To determine the background response for a given protein, the percent responders for each peptide in the set were averaged and a standard deviation was calculated. SI values for each donor were compiled for each peptide set, and the percent of responders reported.

HLA-DR6(13) = assay: Peptide binding competition assay, HLA class II; design: species or system human; conditions: competition with standard peptide
Experimental: In addition to the above I-MUNE® assay, peptide binding assays were also performed. The peptide binding assay used during the development of the present invention is known in the art (Southwood et al., J. Immunol., 160:3363-3373 [1998]). Briefly, HLA-DR and -DQ molecules were purified from a panel of EBV transformed cell lines. A competition assay was performed with a characterized standard peptide, and the unknown peptide. The amount of unknown peptide required to compete 50% of the standard peptide binding was then determined (indicated as the IC50).
The IC50 for HLA class II protein binding was determined for peptide epitopes defined by the in two related industrial bacterial proteases (See, FIG. 17). The peptides were tested in a competition assay for binding to 18 different HLA-DR and -DQ proteins. […] This likely explains the association seen in the data for a response to this peptide with HLA-DR6(13) donors (p=0.00015; relative risk=7.22, n=113 donors tested). Those results with values less than 500 nM were considered to be good binders and are highlighted in bold in FIG. 17. Also, in this Figure, degeneracy indicates the number of HLA Class II proteins that bind with an IC50 of less than 500 nM out of the 18 total alleles tested.

[2] = Table 3, Stanford and Sacramento donors

## BPN′ Y217L #24: 15-mer epitope peptide number 24 of BPN′ Y217L, amino acids 70-84 (GTVAALNNSIGVLGV)
[1]
  Average percent response to epitope peptide: 11.69%
HLA-DR6(13)
  IC50: 0.69 nM

## BPN′ Y217L#37: 15-mer epitope peptide number 37 of BPN′ Y217L, amino acids 109-123 (NGIEWAIANNMDVIN)
[1]
  Average percent response to epitope peptide: 12.91%

## Ecotin: serine protease inhibitor from E. coli K12; GenBank Accession No. NP—416713
[1]; Table 3
  Background %: 5.69%
  Response/Peptide: 3.98
[1]; [2]
  Structure Value: 0.64

## GTTRLYANASFGLFG (synthetic variant) [I155F]
[1]
  effect of substitution on percent of responders to the epitope: had little effect

## GTTRLYANASIGLFG (listed as Enterobacter cloacae) [Peptide #49]
[1]
  statistical significance of the peptide response: reached statistical significance using less conservative analyses

## GTTRLYANASLGLFG (synthetic variant) [I155L]
[1]
  effect of substitution on percent of responders to the epitope: had little effect

## GTTRLYANASVGLFG (synthetic variant) [I155V]
[1]
  effect of substitution on percent of responders to the epitope: increased the percent of responders to the modified epitope sequence

## GTTRSYANASIGLFG (synthetic variant) [L149S]
[1]
  effect of substitution on percent of responders to the epitope: had an effect on the epitope response rate

## ITPLMKAQSVPGMAV (listed as Enterobacter cloacae) [Peptide #6]
[1]
  statistical significance of the peptide response: reached statistical significance using less conservative analyses

## MLDLATYTAGGLPLQ (listed as Enterobacter cloacae) [Peptide #36]
[1]; DR1+ responders
  quantitative response among responders: 7.8
[1]; DR1− responders
  quantitative response among responders: 4.42
[1]
  response to the peptide: 12.11%
  statistical significance of the peptide response: significant (p<0.05)

## TGGFGSYVAFLPEKQ (TGGFGSYVAFIPEKQ; listed as Enterobacter cloacae) [Peptide #107]
[1]; DR1+ responders
  quantitative response among responders: 5.4
[1]; DR1− responders
  quantitative response among responders: 4.2
[1]
  response to the peptide: 12.11%
  statistical significance of the peptide response: significant (p<0.05)

## hTpo: human thrombopoietin
[1]
  structure value, in words: comparatively high
  Average percent response to epitope peptide: 9.18%
[1]; Table 2
  Average Background: 2.56
  Number of epitope regions: 1
  Response per peptide: 2.54
  Structure Value: 0.65
[1]; Table 3
  Background %: 2.53%
  Response/Peptide: 2.24
[1]; [2]
  Structure Value: 0.65
[1]; Table 5, background response value
  Background +/− sd: 2.54 +/− 2.23
[1]; Table 5, determined experimentally
  Responses/peptide found: 2.51
